Results published in patent publication US20230335758A1, “REDOX FLOW BATTERY” (University of Massachusetts, priority 2022, published 2023).

Tests used:
[1] = Solubility of AQS ionic derivatives in MeCN, measured by UV-vis (Beer's law); format: physicochemical; settings: cooled to room temperature after stirring at 40° C.
Excerpt: Beer's law was used to measure the concentration of the solution using pre-determined molar extinction coefficient using standard calibration curve.

[2] = Cyclic voltammetry of AQS (Randles-Sevcik analysis); format: physicochemical
Procedure: Cyclic voltammetry was performed at room temperature in inert atmosphere of dinitrogen using three electrode cell on a VersaSTAT3 workstation. (Princeton Applied Research, USA). Glassy carbon (3 mm, Basi) was employed as working electrode and platinum wire was used as counter electrode. Ag wire was used as pseudo reference electrode with Fc/Fc^+ couple as an internal standard for initial redox potential evaluation. Subsequently, all potentials were referenced to SHE. Diffusion coefficient was calculated using Randles-Sevcik equation as follow.
where, ip is the peak current, n is number electron in redox reaction, F is faraday constant, A is geometrical surface area of electrode, C is the bulk concentration of analyte, ν is scan rate, D is diffusion coefficient and R and T are gas constant and absolute temperature. CV curves were obtained at various scan rate and peak current were plotted against square root of scan rate. Slope (m) of the linear fit was used to determine diffusion coefficient using following equation.

[3] = vanadium(iv) ion chelation; cited from earlier work
[4] = vs. SHE in DMSO; cited from earlier work

Compound `O=C1c2ccccc2C(=O)c2ccccc21` [AQ, reference compound] has a Solubility [1] of under 5 mM.
With `O=C1c2ccccc2C(=O)c2cc(S(=O)(=O)O)ccc21` [AQS, Anthraquinone 2-sulfonate] the diffusion coefficient ([2]; CV at various scan rates, Randles-Sevcik plot) was 8.46×10^−6 cm^2 s^−1, the “potential of first electrochemically reversible wave (1^−/2^− couple)” value ([2]; vs SHE) was −0.6 V and the “potential of second electrochemically reversible wave (2^−/3^− couple)” value ([2]; vs SHE) was −1.2 V.
For `C[C@@H](C(=O)[O-])N(O)[C@@H](C)C(=O)[O-].C[C@@H](C(=O)[O-])N(O)[C@@H](C)C(=O)[O-].[V+4]` [Amavadin], the “log equilibrium constant (log Keq), stability constant” value [3] is listed as 23.
Work on `CC[N+](CC)(CC)CC.O=C1c2ccccc2C(=O)c2cc(S(=O)(=O)[O-])ccc21` [N2222AQS] yielded a Solubility [1] of 105 mM.
Work on `CCC[N+](CCC)(CCC)CCC.O=C1c2ccccc2C(=O)c2cc(S(=O)(=O)[O-])ccc21` [N3333AQS] yielded a Solubility [1] of 640 mM.
`CCCC[N+](CCCC)(CCCC)CCCC.O=C1c2ccccc2C(=O)c2cc(S(=O)(=O)[O-])ccc21` [N4444AQS] gave a Solubility [1] of 1260 mM.
`O=C1c2ccccc2C(=O)c2cc(S(=O)(=O)[O-])ccc21.[Na+]` [NaAQS, sodium anthraquinone-2-sulfonate, reference compound] showed a solubility at 15 min ([1]; MeCN (acetonitrile), organic solvent or mixture, thermodynamic from solid) of under 1 mM.
For “vanadium(IV/V)bis-hydroxyiminodiacetate [VBH]”, the “E° (standard potential)” value [4] is given as 0.30 V.
